Data taken from ChEMBL document CHEMBL4613301, “Molecular Docking Studies of Royleanone Diterpenoids from Plectranthus spp. as P-Glycoprotein Inhibitors” (ACS Med Chem Lett, 2020).

Assays:
Type in all cases: cell-based
[1] = target: T1, ATP-dependent translocase ABCB1 (Homo sapiens, UniProt P08183); assay: Inhibition of P-gp in human NCI-H460/R cells assessed as fluorescence activity ratio at 20 uM relative to control
[2] = target: T1, ATP-dependent translocase ABCB1; assay: Inhibition of P-gp in human NCI-H460/R cells assessed as mean fluorescence intensity of Rhodamine 123 at 20 uM (reference value: 16.96)
[3] = target: T1, ATP-dependent translocase ABCB1; assay: Ratio of inhibition of P-gp in human NCI-H460/R cells assessed as mean fluorescence intensity at 20 uM relative to control

T1 sequence (P08183 whole entry): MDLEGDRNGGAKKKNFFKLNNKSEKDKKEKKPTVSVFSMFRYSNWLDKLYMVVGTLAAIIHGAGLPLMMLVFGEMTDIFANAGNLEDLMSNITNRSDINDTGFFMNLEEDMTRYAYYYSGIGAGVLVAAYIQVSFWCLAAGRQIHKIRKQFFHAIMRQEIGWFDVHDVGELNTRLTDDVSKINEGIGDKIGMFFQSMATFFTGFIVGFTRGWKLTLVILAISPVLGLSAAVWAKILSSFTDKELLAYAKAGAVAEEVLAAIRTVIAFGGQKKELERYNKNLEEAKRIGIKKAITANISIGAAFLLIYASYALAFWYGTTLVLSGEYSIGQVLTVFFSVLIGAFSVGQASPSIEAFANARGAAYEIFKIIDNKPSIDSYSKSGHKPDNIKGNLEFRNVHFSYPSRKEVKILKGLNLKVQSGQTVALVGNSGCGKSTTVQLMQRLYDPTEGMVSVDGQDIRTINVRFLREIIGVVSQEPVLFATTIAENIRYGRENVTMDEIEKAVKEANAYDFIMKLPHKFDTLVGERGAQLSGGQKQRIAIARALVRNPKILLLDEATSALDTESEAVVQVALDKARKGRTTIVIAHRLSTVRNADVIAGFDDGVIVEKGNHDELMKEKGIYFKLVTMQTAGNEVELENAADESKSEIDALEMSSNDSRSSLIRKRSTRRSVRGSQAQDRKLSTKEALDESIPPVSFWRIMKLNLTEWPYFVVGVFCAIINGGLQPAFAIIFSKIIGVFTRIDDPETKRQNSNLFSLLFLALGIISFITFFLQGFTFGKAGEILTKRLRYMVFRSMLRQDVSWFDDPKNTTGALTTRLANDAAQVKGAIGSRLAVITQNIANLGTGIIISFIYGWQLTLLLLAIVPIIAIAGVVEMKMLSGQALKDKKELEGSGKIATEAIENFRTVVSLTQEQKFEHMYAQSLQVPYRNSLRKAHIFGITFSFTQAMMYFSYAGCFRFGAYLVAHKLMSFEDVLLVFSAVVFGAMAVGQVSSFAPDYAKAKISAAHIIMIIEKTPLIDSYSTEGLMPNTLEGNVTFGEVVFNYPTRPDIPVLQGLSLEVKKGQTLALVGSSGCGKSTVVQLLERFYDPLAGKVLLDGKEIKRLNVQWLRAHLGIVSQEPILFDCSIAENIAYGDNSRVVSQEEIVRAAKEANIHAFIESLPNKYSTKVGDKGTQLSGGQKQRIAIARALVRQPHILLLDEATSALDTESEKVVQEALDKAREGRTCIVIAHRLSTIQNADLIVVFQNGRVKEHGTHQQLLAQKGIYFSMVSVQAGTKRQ

| Ratio [1] | FI [2] | Ratio [3] | Structure (SMILES) |
| --- | --- | --- | --- |
| 1.71 | 28.97 | 21.6 | CC(=O)O[C@H]1C2=C(C(=O)C(OC(=O)c3ccc(Cl)cc3)=C(C(C)C)C2=O)[C@@]2(C)CCCC(C)(C)[C@@H]2[C@@H]1OC(=O)c1ccc(Cl)cc1 |
| 2.1 | 35.54 | 26.5 | CC(=O)O[C@H]1C2=C(C(=O)C(OC(=O)c3ccccc3)=C(C(C)C)C2=O)[C@@]2(C)CCCC(C)(C)[C@@H]2[C@@H]1O |
| 2.13 | 36.07 | 26.9 | COc1ccc(CCN(C)CCC[C@](C#N)(c2ccc(OC)c(OC)c2)C(C)C)cc1OC [DEXVERAPAMIL] |
